{"source": "patent US4746734A", "about": "“Partially methylated cyclodextrins and process for producing the same” (Sanraku Incorporated, priority 1985, dated 1988)", "origin": "cited, not measured here", "settings": "background statement"}
{"compound": "OC[C@H]1O[C@@H]2O[C@H]3[C@H](O)[C@@H](O)[C@@H](O[C@H]4[C@H](O)[C@@H](O)[C@@H](O[C@H]5[C@H](O)[C@@H](O)[C@@H](O[C@H]6[C@H](O)[C@@H](O)[C@@H](O[C@H]7[C@H](O)[C@@H](O)[C@@H](O[C@H]8[C@H](O)[C@@H](O)[C@@H](O[C@H]1[C@H](O)[C@H]2O)O[C@@H]8CO)O[C@@H]7CO)O[C@@H]6CO)O[C@@H]5CO)O[C@@H]4CO)O[C@@H]3CO", "note": "[β-CD]", "values": [{"measurement": "solubility in water (description of prior art)", "result": "particularly low in water solubility"}]}
